# Source: patent US12146010B2, “Amine co-initiator mixture” (Arkema UK Limited, priority 2019, dated 2024)
# Key:
# [1] = Solubility of amines and amine mixtures in acrylate resins; format: physicochemical; settings: for Solubility (% w/w at ~15-20° C.): stays in solution at least 7 days, above 10% w/w not tested; for Dissolution of the solid material: at 1% w/w in the acrylate resins
# Description: This example illustrates the improved solubility of the co-initiator mixtures compared to single component amine co-initiator compositions, illustrating the benefit of providing a composition comprising both the compound of Formula I and the ancillary amine. For comparison, the solubility of amine mixtures as provided by this invention, of which mixtures AM1-AM6 are representative examples, were tested alongside single component formulations comprising only the amines AC1-AC5.
# Mixtures of amine synergists were prepared using one of the methods described above.
# The solid amines AC1-AC5 or mixtures of amines AM1-AM6 were added portion-wise in 1% w/w portions to stirred 5.0 g samples of the following acrylate resins and the samples were stirred at 15-20° C. until all solid material was completely dissolved: HDDA (1,6-hexanediol diacrylate), TMPTA (trimethylolpropane triacrylate), TPGDA (tripropyleneglycol diacrylate). At the concentrations given below (Table 2a-2k) all solids remained in solution for at least 7 days at 15-20° C. unless otherwise stated. In cases where the solids began to crystallise out of solution within this time the mixtures were warmed to approx. 40° C. to re-dissolve the solids and the concentrations were adjusted to the given values by the addition of extra resin, whereupon the solids remained dissolved at the adjusted concentration for at least 7 days at 15-20° C. Solubility above 10% w/w was not tested in any case. The weight % is based on the total weight of the mixture.
# [2] = UV curing experiments: passes under Hg lamp to tack-free / thumb-twist cure; settings: approx. 16 m/min belt speed, 0.20 g amine in 4.0 g resin with 1% 2-ITX and 4% BP
# Description: The following example illustrates the high curing speed of co-initiators which contain the compound of Formula I and the ancillary amine. For comparison, the commercially available amine co-initiators SpeedCure EDB (Lambson Limited) and diffusion-hindered polymeric amine SpeedCure 7040 (Lambson Limited) were also tested. Additionally, the pure amines AC1-AC5 were tested alongside the mixtures provided by this invention, of which the mixtures AM1-AM6 are representative examples.
# The amine co-initiators or co-initiator mixtures (0.20 g) were added to a resin mixture (4.0 g) containing 1% w/w SpeedCure 2-ITX (Lambson Limited) and 4% w/w SpeedCure BP (Lambson Limited) in 70:30 ethoxylated bisphenol A dimethacrylate (EO/phenol 10):trimethylolpropane triacrylate with stirring at 15-20° C. until all solid material had dissolved.
# Formulations were cured at 6 and 24 μm film thicknesses under Hg lamp using a Dymax curing instrument with approx. 16 m/min belt speed. The number of passes under the lamp required to give a ‘tack-free’ (TF) coating (as determined when the surface of the coating no longer feels sticky when lightly touched) or full cure as determined by the ‘thumb-twist’ test (TT) (i.e. until no visible mark is made when a thumb is pressed down firmly onto the coating with a twisting motion) are given in Table 3.
# [3] = in HDDA (1,6-hexanediol diacrylate)
# [4] = in TMPTA (trimethylolpropane triacrylate)
# [5] = in TPGDA (tripropyleneglycol diacrylate)
Compound,"Solubility (% w/w at ~15-20° C.) [1, 3] [% w/w]","Solubility (% w/w at ~15-20° C.) [1, 4] [% w/w]","Solubility (% w/w at ~15-20° C.) [1, 5] [% w/w]","Time until solid crystallised out of solution ([1]; initially dissolved at 2% w/w, all three resins) [h]",Dissolution of the solid material [1],"No. of Passes Required, TF (tack-free) ([2]; 6 μm film) [passes]","No. of Passes Required, TT (thumb-twist, full cure) ([2]; 6 μm film) [passes]","No. of Passes Required, TF (tack-free) ([2]; 24 μm film) [passes]","No. of Passes Required, TT (thumb-twist, full cure) ([2]; 24 μm film) [passes]"
CCC(COCC(CC)(COC(=O)c1ccc(N(C)C)cc1)COC(=O)c1ccc(N(C)C)cc1)(COC(=O)c1ccc(N(C)C)cc1)COC(=O)c1ccc(N(C)C)cc1 [AC1],5,4,3,,,1,5,1,2
CCC(CO)(COCC(CC)(COC(=O)c1ccc(N(C)C)cc1)COC(=O)c1ccc(N(C)C)cc1)COC(=O)c1ccc(N(C)C)cc1 (stereo not drawn) [AC2],10,10,10,,,1,6,1,2
CCC(COC(=O)c1ccc(N(C)C)cc1)(COC(=O)c1ccc(N(C)C)cc1)COC(=O)c1ccc(N(C)C)cc1 [AC3],<2,<2,<2,≤ 24,,,,,
"CCOC(=O)c1ccc(N(C)C)cc1 [SpeedCure EDB, ethyl 4-(dimethylamino)benzoate, reference compound]",,,,,,1,6,1,2

# More lines, main results first:
"Solubility (% w/w at ~15-20° C.) [1, 3] [% w/w]","Solubility (% w/w at ~15-20° C.) [1, 4] [% w/w]","Solubility (% w/w at ~15-20° C.) [1, 5] [% w/w]","Time until solid crystallised out of solution ([1]; initially dissolved at 2% w/w, all three resins) [h]",Dissolution of the solid material [1],Compound,"No. of Passes Required, TF (tack-free) ([2]; 6 μm film) [passes]","No. of Passes Required, TT (thumb-twist, full cure) ([2]; 6 μm film) [passes]","No. of Passes Required, TF (tack-free) ([2]; 24 μm film) [passes]","No. of Passes Required, TT (thumb-twist, full cure) ([2]; 24 μm film) [passes]"
<1,<1,<1,,would not dissolve,CN(C)c1ccc(C(=O)OCC(COC(=O)c2ccc(N(C)C)cc2)(COC(=O)c2ccc(N(C)C)cc2)COC(=O)c2ccc(N(C)C)cc2)cc1 [AC4],,,,
<1,<1,<1,,would not dissolve,CN(C)c1ccc(C(=O)OCC(COC(=O)c2ccc(N(C)C)cc2)OC(=O)c2ccc(N(C)C)cc2)cc1 [AC5],,,,
